Experimental data from ChEMBL document CHEMBL5537147, “Development of membrane-targeting TPP+-chloramphenicol conjugates to combat methicillin-resistant staphylococcus aureus (MRSA) infections” (Eur J Med Chem, 2024).

Legend:
Acinetobacter baumannii [1] = test: Antibacterial activity against Acinetobacter baumannii 1309 assessed as inhibition of bacterial growth incubated for 16 to 18 hrs by CLSI based two-fold serial dilution method; format: functional; conditions: time 16-18 hrs
Staphylococcus aureus [2] = test: Antibacterial activity against methicillin-resistant Staphylococcus aureus 330041 assessed as inhibition of bacterial growth incubated for 16 to 18 hrs by CLSI based two-fold serial dilution method; format: functional; conditions: time 16-18 hrs
Pseudomonas aeruginosa [3] = test: Antibacterial activity against Pseudomonas aeruginosa 408 assessed as inhibition of bacterial growth incubated for 16 to 18 hrs by CLSI based two-fold serial dilution method; format: functional; conditions: time 16-18 hrs
Staphylococcus aureus [4] = test: Antibacterial activity against methicillin-resistant Staphylococcus aureus USA300 assessed as inhibition of bacterial growth incubated for 16 to 18 hrs by CLSI based two-fold serial dilution method; format: functional; conditions: time 16-18 hrs
Pseudomonas aeruginosa [5] = test: Antibacterial activity against Pseudomonas aeruginosa 535 assessed as inhibition of bacterial growth incubated for 16 to 18 hrs by CLSI based two-fold serial dilution method; format: functional; conditions: time 16-18 hrs
[6] = Cytotoxicity against human L02 cells assessed as inhibition of cell growth incubated for 24 hrs by MTT assay; format: toxicity, cell-based
Staphylococcus aureus [7] = test: Antibacterial activity against methicillin-resistant Staphylococcus aureus 3392 assessed as inhibition of bacterial growth incubated for 16 to 18 hrs by CLSI based two-fold serial dilution method; format: functional; conditions: time 16-18 hrs
Staphylococcus aureus [8] = test: Antibacterial activity against methicillin-resistant Staphylococcus aureus 3390 assessed as inhibition of bacterial growth incubated for 16 to 18 hrs by CLSI based two-fold serial dilution method; format: functional; conditions: time 16-18 hrs
Acinetobacter baumannii [9] = test: Antibacterial activity against Acinetobacter baumannii 1310 assessed as inhibition of bacterial growth incubated for 16 to 18 hrs by CLSI based two-fold serial dilution method; format: functional; conditions: time 16-18 hrs

SMILES	MIC (Acinetobacter baumannii [1]) [µg/mL]	MIC (Staphylococcus aureus [2]) [µg/mL]	MIC (Pseudomonas aeruginosa [3]) [µg/mL]	MIC (Staphylococcus aureus [4]) [µg/mL]	MIC (Pseudomonas aeruginosa [5]) [µg/mL]	IC50 at 24 h [6] [µg/mL]	MIC (Staphylococcus aureus [7]) [µg/mL]	MIC (Staphylococcus aureus [8]) [µg/mL]	MIC (Acinetobacter baumannii [9]) [µg/mL]
O=C(O)CCC[P+](c1ccccc1)(c1ccccc1)c1ccccc1.[Br-]	> 64	> 64	> 64	> 64	> 64	> 64	> 64	> 64	> 64
Br.O=C(CCC[P+](c1ccccc1)(c1ccccc1)c1ccccc1)OC[C@H](NC(=O)C(Cl)Cl)[C@H](O)c1ccc([N+](=O)[O-])cc1	> 64	32	> 64	16	> 64	> 64	32	32	> 64
O=C(O)CCCCCCCCCCCCCCCCC[P+](c1ccccc1)(c1ccccc1)c1ccccc1.[Br-]	> 64	> 64	> 64	> 64	> 64	> 64	> 64	> 64	> 64
Br.O=C(CCCCCCC[P+](c1ccccc1)(c1ccccc1)c1ccccc1)OC[C@H](NC(=O)C(Cl)Cl)[C@H](O)c1ccc([N+](=O)[O-])cc1	> 64	2	> 64	2	> 64	> 64	2	2	> 64
Br.O=C(COCCOCCOCC[P+](c1ccc(F)cc1)(c1ccc(F)cc1)c1ccc(F)cc1)OC[C@@H](NC(=O)C(Cl)Cl)[C@@H](O)c1ccc([N+](=O)[O-])cc1	> 64	8	> 64	8	> 64	> 64	8	8	> 64
Br.O=C(CCCC[P+](c1ccccc1)(c1ccccc1)c1ccccc1)OC[C@H](NC(=O)C(Cl)Cl)[C@H](O)c1ccc([N+](=O)[O-])cc1	> 64	16	> 64	8	> 64	> 64	8	8	> 64
O=C(O)CCCCCCC[P+](c1ccccc1)(c1ccccc1)c1ccccc1.[Br-]	> 64	> 64	> 64	> 64	> 64	> 64	> 64	> 64	> 64
Br.O=C(CCCCCCCCCCC[P+](c1ccccc1)(c1ccccc1)c1ccccc1)OC[C@H](NC(=O)C(Cl)Cl)[C@H](O)c1ccc([N+](=O)[O-])cc1	> 64	2	> 64	2	> 64	16.5	2	2	> 64
Br.O=C(CCCCCCCCC[P+](c1cccc(F)c1)(c1cccc(F)c1)c1cccc(F)c1)OC[C@H](NC(=O)C(Cl)Cl)[C@H](O)c1ccc([N+](=O)[O-])cc1	> 64	1	> 64	1	> 64	28.7	1	1	> 64
O=C(O)CCCC[P+](c1ccccc1)(c1ccccc1)c1ccccc1.[Br-]	> 64	> 64	> 64	> 64	> 64	> 64	> 64	> 64	> 64
O=C(O)CCCCC[P+](c1ccccc1)(c1ccccc1)c1ccccc1.[Br-]	> 64	> 64	> 64	> 64	> 64	> 64	> 64	> 64	> 64
Br.O=C(CCCCC[P+](c1ccccc1)(c1ccccc1)c1ccccc1)OC[C@H](NC(=O)C(Cl)Cl)[C@H](O)c1ccc([N+](=O)[O-])cc1	> 64	16	> 64	8	> 64	> 64	8	16	> 64
COc1ccc([P+](CCCCCCCCCC(=O)O)(c2ccc(OC)cc2)c2ccc(OC)cc2)cc1.[Br-]	64	32	> 64	32	> 64	13.5	32	16	64
Br.COc1ccc([P+](CCCCCCCCCC(=O)OC[C@H](NC(=O)C(Cl)Cl)[C@H](O)c2ccc([N+](=O)[O-])cc2)(c2ccc(OC)cc2)c2ccc(OC)cc2)cc1	> 64	1	> 64	2	> 64	23.5	2	2	> 64
O=C(O)CCCCCCCCC[P+](c1ccccc1)(c1ccccc1)c1ccccc1.[Br-]	> 64	> 64	> 64	> 64	> 64	> 64	> 64	> 64	> 64
Br.O=C(CCCCCCCCC[P+](c1ccccc1)(c1ccccc1)c1ccccc1)O[C@H](c1ccc([N+](=O)[O-])cc1)[C@H](CO)NC(=O)C(Cl)Cl	> 64	1	> 64	1	> 64	< 32	2	1	> 64
Cc1ccc([P+](CCCCCCCCCC(=O)O)(c2ccc(C)cc2)c2ccc(C)cc2)cc1.[Br-]	> 64	> 64	> 64	> 64	> 64	23.1	> 64	> 64	> 64
Br.O=C(CCCCCCCCC[P+](c1ccc(Cl)cc1)(c1ccc(Cl)cc1)c1ccc(Cl)cc1)OC[C@H](NC(=O)C(Cl)Cl)[C@H](O)c1ccc([N+](=O)[O-])cc1	> 64	0.5	> 64	0.5	> 64	16.4	0.5	0.5	> 64
O=C(O)CCCCCCCCCCC[P+](c1ccccc1)(c1ccccc1)c1ccccc1.[Br-]	> 64	> 64	> 64	> 64	> 64	> 64	> 64	> 64	> 64
Br.CN(C)c1ccc([P+](CCCCCCCCCC(=O)OC[C@H](NC(=O)C(Cl)Cl)[C@H](O)c2ccc([N+](=O)[O-])cc2)(c2ccc(N(C)C)cc2)c2ccc(N(C)C)cc2)cc1	16	1	4	1	16	12.4	1	1	32
O=C(O)c1cn(C2CC2)c2cc(N3CCNCC3)c(F)cc2c1=O [CIPROFLOXACIN]	–	–	–	–	–	> 64	–	–	–
O=C(O)CCCCCCCCC[P+](c1ccc(C(F)(F)F)cc1)(c1ccc(C(F)(F)F)cc1)c1ccc(C(F)(F)F)cc1.[Br-]	> 64	> 64	> 64	> 64	> 64	> 64	> 64	> 64	> 64
